Experimental findings from patent US8334292B1, “Pyrimidine compounds and methods of making and using same” (Cystic Fibrosis Foundation Therapeutics, Inc., priority 2010, dated 2012) are described below.

The target in assay [1] is T1, ΔF508 CTFR (Homo sapiens, UniProt P13569, DEL508-508).
T1 construct: expressed in transfected cells; host or cells: FRT epithelial cells (Fischer rat thyroid)
The assay is described as follows: Corrector assay, FRT cell electrophysiological (Ussing chamber) assay. Format: cell-based. The following applies: FRT cells treated 24 hours with 3 μM compound; total change in ISC normalized to 10 μM reference corrector C17. As to the method:
(§1) For use in the corrector assay, FRT epithelial cell monolayers are grown on Snapwell filter inserts and optionally treated with a compound of invention, vehicle (DMSO) or reference corrector N-(2-(5-chloro-2-methoxyphenylamino)-4′-methyl-4,5′-bithiazol-2′-yl)pivalamide (C17). Cells are exposed to compound, vehicle (negative control) or reference corrector (positive control) in a cell/tissue incubator at 37° C. for 24 hours prior to the assay. The inserts are then transferred to a Physiologic Instruments Ussing chamber (P2302) and superfused with 5 ml of a HEPES buffered physiological saline (HB-PS) as the serosal solution with composition (in mM): NaCl, 137; KCl, 4.0; CaCl2, 1.8; MgCl2, 1; HEPES, 10; Glucose, 10; pH adjusted to 7.4 with NaOH. The mucosal solution will be 5 ml of 10CF—PS with composition (in mM): Na-gluconate, 137; KCl, 4; CaCl2, 1.8; MgCl2, 1; HEPES, 10; Glucose, 10; pH adjusted to 7.4 with N-methyl-D-glucamine to create a transepithelial Cl ion gradient. Transepithelial voltage is clamped to 0 mV and the short circuit current (ISC)—reflecting the net ion (Cl—) transport across the epithelial cell monolayer—is measured using a Physiologic Instruments VCC MC8 epithelial voltage clamp (Physiologic Instruments, Inc., San Diego, Calif.). The assay is carried out at 27° C.
(§2) After acquisition of at least 10 minutes of baseline current, agonists (final concentrations: 10 μM forskolin, 100 μM 3-isobutyl-1-methylxanthine [IBMX] and 20 μM genistein) and antagonist (final concentration: 20 μM CFTRinh-172) will be applied sequentially and cumulatively at ˜10-15 minute intervals to both serosal and mucosal epithelial surfaces. On occasion where a 10-15 min interval is not sufficient for ISC to reach a new steady-state after compound addition, the interval between compound additions may have been extended.
(§3) Agonists are added as 200×-1000× stock solutions to both the serosal and mucosal sides. Transepithelial resistance is monitored every 20 s. In a potentiator assay, appropriate volumes from 10 mM compound stock solution in DMSO are added to the mucosal side (i.e. the 10CF—PS solution containing half chamber) of vehicle treated inserts. Compound is added acutely after activation of CFTR by Forskolin and prior to additions of IBMX, genistein, and CFTRinh-172.
(§4) Corrector efficacy—as given in Table 3—is measured as the total change in ISC (i.e. the difference in ISC before and after addition of all agonists) obtained from cells treated with 3 μM compound of invention and normalized to the total change in ISC obtained from the same batch of cells treated contemporaneously with 10 μM reference corrector C17. Potentiator efficacy—as given in Table 3—is measured as the change in ISC after acute addition of 1 μM compound to the mucosal side of vehicle treated cells divided by the total change in ISC after sequential additions of 1 μM compound, 100 μM IBMX, and 20 μM genistein.

The target of assay [2] is T1, ΔF508 CTFR. Put plainly: Potentiator assay, FRT cell electrophysiological (Ussing chamber) assay. It counts as cell-based. The following applies: change in ISC after acute addition of 1 μM compound to mucosal side of vehicle treated FRT cells divided by total change in ISC after 1 μM compound, 100 μM IBMX, 20 μM genistein. As to the method: as §1, §2, §3, §4

T1 sequence (P13569 with tags, fused parts or gaps DEL508-508): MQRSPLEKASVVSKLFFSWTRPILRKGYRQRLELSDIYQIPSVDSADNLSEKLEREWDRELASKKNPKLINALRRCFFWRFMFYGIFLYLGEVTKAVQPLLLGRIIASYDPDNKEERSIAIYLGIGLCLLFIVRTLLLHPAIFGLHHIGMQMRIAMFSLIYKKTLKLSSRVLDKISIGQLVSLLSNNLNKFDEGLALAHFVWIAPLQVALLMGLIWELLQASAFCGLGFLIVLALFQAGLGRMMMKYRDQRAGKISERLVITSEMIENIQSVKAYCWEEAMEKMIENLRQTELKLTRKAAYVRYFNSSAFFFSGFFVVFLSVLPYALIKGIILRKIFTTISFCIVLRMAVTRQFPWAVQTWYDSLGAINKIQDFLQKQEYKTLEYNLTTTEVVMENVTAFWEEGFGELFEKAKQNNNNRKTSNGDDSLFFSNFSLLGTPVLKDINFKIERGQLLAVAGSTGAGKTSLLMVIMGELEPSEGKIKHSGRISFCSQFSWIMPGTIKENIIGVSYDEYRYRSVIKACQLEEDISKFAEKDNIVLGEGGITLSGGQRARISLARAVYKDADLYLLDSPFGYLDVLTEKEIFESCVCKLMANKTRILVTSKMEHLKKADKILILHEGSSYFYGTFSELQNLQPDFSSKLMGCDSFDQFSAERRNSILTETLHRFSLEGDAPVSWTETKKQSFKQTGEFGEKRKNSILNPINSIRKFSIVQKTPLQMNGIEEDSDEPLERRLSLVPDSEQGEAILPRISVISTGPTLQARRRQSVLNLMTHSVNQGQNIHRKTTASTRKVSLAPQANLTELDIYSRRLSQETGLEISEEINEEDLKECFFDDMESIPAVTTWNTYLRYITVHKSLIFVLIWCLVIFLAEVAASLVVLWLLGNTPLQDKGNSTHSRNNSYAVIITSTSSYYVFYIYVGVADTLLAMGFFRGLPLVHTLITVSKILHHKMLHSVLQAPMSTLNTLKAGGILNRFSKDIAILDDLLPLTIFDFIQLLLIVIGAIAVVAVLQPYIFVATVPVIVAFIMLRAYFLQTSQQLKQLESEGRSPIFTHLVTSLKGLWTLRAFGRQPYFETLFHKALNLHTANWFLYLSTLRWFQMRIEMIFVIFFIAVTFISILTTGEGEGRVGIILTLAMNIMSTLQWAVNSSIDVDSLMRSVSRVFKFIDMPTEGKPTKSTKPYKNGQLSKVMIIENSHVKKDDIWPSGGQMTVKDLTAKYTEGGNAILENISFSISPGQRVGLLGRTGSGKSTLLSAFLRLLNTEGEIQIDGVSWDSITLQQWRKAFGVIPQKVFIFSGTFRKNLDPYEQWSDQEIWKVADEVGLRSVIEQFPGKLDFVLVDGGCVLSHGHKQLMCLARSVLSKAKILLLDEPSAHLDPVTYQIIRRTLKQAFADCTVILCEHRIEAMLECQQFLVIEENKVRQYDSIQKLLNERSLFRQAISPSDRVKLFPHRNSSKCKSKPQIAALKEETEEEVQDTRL

Regarding `CC1CCC(Nc2ncc(-c3ccc(O[C@H]4CCOC4)cc3)c(OC3CN(S(=O)(=O)N(C)C)C3)n2)CC1` (stereo partly drawn) [Example 214, N,N-dimethyl-3-(2-((1s,4s)-4-methylcyclohexylamino)-5-(4-((S)-tetrahydrofuran-3-yloxy)phenyl)pyrimidin-4-yloxy)azetidine-1-sulfonamide], the “Corrector Efficacy” value on ΔF508 CTFR [1] was “+++ (+++=>0.6)”. Further, the “Potentiator Efficacy” value on ΔF508 CTFR [2] is listed as “+ (+=<0.1)”.

Take `Cc1nc(N[C@H]2CC[C@@H](C)CC2)nc(O[C@@H]2CCOC2)c1-c1ccc(N2CCOCC2)cc1` [Example 43, 4-methyl-N-((1s,4S)-4-methylcyclohexyl)-5-(4-morpholinophenyl)-6((R)-tetrahydrofuran-3-yloxy)pyrimidin-2-amine]: the “Corrector Efficacy” value on ΔF508 CTFR [1] is on record as “++ (++=0.3-0.6)”. Moreover, the “Potentiator Efficacy” value at ΔF508 CTFR [2] is recorded as “+ (+=<0.1)”.

Consider `CN(C)S(=O)(=O)N1CC(Oc2nc(N[C@H]3CC[C@@H](C)CC3)ncc2-c2ccc(N3CCOCC3)cc2)C1` [Example 1, N,N-dimethyl-3-(2-((1s,4s)-4-methylcyclohexylamino)-5-(4-morpholinophenyl)-pyrimidin-4-yloxy)azetidine-1-sulfonamide], for which, on ΔF508 CTFR [1], the “Corrector Efficacy” value is “+++ (+++=>0.6)”. Besides, on ΔF508 CTFR [2], the “Potentiator Efficacy” value was “++ (++=0.1-0.25)”.

As for `COCCc1ccc(-c2cnc(N[C@H]3CC[C@@H](C)CC3)nc2OC2CCN(C(=O)OC)CC2)cc1` [Example 206, methyl 4-(5-(4-(2-methoxyethyl)phenyl)-2-((1s,4s)-4-methylcyclohexylamino)pyrimidin-4-yloxy)piperidine-1-carboxylate], on ΔF508 CTFR [1], the “Corrector Efficacy” value is “++ (++=0.3-0.6)”. Also, the “Potentiator Efficacy” value at ΔF508 CTFR [2] is on record as “+ (+=<0.1)”.

Regarding `CC1CCC(Nc2ncc(-c3ccc(O[C@@H]4CCOC4)cc3)c(OC3CCOCC3)n2)CC1` (stereo partly drawn) [Example 93, N-((1s,4s)-4-methylcyclohexyl)-4-(tetrahydro-2H-pyran-4-yloxy)-5-(4-((R)-tetrahydrofuran-3-yloxy)phenyl)pyrimidin-2-amine], the “Corrector Efficacy” value at ΔF508 CTFR [1] is “+++ (+++=>0.6)”. In addition, the “Potentiator Efficacy” value on ΔF508 CTFR [2] is “++ (++=0.1-0.25)”.

For the molecule `CC1CCC(Nc2ncc(-c3ccc(O[C@@H]4CCOC4)cc3)c(OC3CN(S(=O)(=O)N(C)C)C3)n2)CC1` (stereo partly drawn) [Example 207, N,N-dimethyl-3-(2-((1s,4s)-4-methylcyclohexylamino)-5-(4-((R)-tetrahydrofuran-3-yloxy)phenyl)pyrimidin-4-yloxy)azetidine-1-sulfonamide], the “Corrector Efficacy” value on ΔF508 CTFR [1] was “+++ (+++=>0.6)”. For the same molecule, at ΔF508 CTFR [2], the “Potentiator Efficacy” value is on record as “+ (+=<0.1)”.

`CC1CCC(Nc2ncc(-c3ccc(O[C@H]4CCOC4)cc3)c(OC3CCN(S(C)(=O)=O)CC3)n2)CC1` (stereo partly drawn) [Example 152, N-((1s,4s)-4-methylcyclohexyl)-4-(1-(methylsulfonyl)piperidin-4-yloxy)-5-(4-((S)-tetrahydrofuran-3-yloxy)phenyl)pyrimidin-2-amine]: at ΔF508 CTFR [1], the “Corrector Efficacy” value was “+++ (+++=>0.6)”. For the same molecule, the “Potentiator Efficacy” value on ΔF508 CTFR [2] was “+++ (+++=>0.25)”.

As for `COCCOc1ccc(-c2cnc(N[C@H]3CC[C@@H](C)CC3)nc2OC2CN(S(C)(=O)=O)C2)cc1` [Example 153, 5-(4-(2-methoxyethoxy)phenyl)-N-((1s,4s)-4-methylcyclohexyl)-4-(1-(methylsulfonyl)azetidin-3-yloxy)pyrimidin-2-amine], the “Corrector Efficacy” value at ΔF508 CTFR [1] is reported as “++ (++=0.3-0.6)”. Moreover, the “Potentiator Efficacy” value at ΔF508 CTFR [2] is reported as “+ (+=<0.1)”.

For `CS(=O)(=O)N1CC(Oc2nc(N[C@H]3CC[C@@H](C)CC3)ncc2-c2ccc(N3CCOCC3)cc2)C1` [Example 59, N-((1s,4s)-4-methylcyclohexyl)-4-(1-(methylsulfonyl)azetidin-3-yloxy)-5-(4-morpholinophenyl)pyrimidin-2-amine], the “Corrector Efficacy” value at ΔF508 CTFR [1] is “++ (++=0.3-0.6)”. Further, on ΔF508 CTFR [2], the “Potentiator Efficacy” value is on record as “+ (+=<0.1)”.

`CS(=O)(=O)N1CC[C@@H](COc2nc(N[C@H]3CC[C@@H](C)CC3)ncc2-c2ccc(N3CCOCC3)cc2)C1` [Example 78]: the “Corrector Efficacy” value at ΔF508 CTFR [1] is listed as “++ (++=0.3-0.6)”. The “Potentiator Efficacy” value on ΔF508 CTFR [2] is on record as “+ (+=<0.1)”.

For `CC1CCC(Nc2ncc(-c3ccc(O[C@H]4CCOC4)cc3)c(OC3CN(S(=O)(=O)C4CC4)C3)n2)CC1` (stereo partly drawn) [Example 215, 4-(1-(cyclopropylsulfonyl)azetidin-3-yloxy)-N-((1s,4s)-4-methylcyclohexyl)-5-(4-((S)-tetrahydrofuran-3-yloxy)phenyl)pyrimidin-2-amine], the “Corrector Efficacy” value at ΔF508 CTFR [1] is listed as “+++ (+++=>0.6)”. Moreover, the “Potentiator Efficacy” value at ΔF508 CTFR [2] is given as “+++ (+++=>0.25)”.

As for `CC1CCC(Nc2ncc(-c3ccc(OC4CCN(C(=O)N(C)C)C4)cc3)c(O[C@@H]3CCOC3)n2)CC1` (stereo partly drawn) [Example 112, N,N-dimethyl-3-(4-(2-((1s,4S)-4-methylcyclohexylamino)-4-((R)-tetrahydrofuran-3-yloxy)pyrimidin-5-yl)phenoxy)pyrrolidine-1-carboxamide], the “Corrector Efficacy” value on ΔF508 CTFR [1] was “++ (++=0.3-0.6)”. Also, the “Potentiator Efficacy” value on ΔF508 CTFR [2] is recorded as “+ (+=<0.1)”.

As to `CC1CCCC(C)C1Nc1ncc(-c2ccc(O[C@H]3CCOC3)cc2)c(O[C@@H]2CCOC2)n1` (stereo partly drawn) [Example 170, N-(2,6-dimethylcyclohexyl)-4-((R)-tetrahydrofuran-3-yloxy)-5-(4-((S)-tetrahydrofuran-3-yloxy)phenyl)pyrimidin-2-amine], the “Corrector Efficacy” value at ΔF508 CTFR [1] is listed as “+++ (+++=>0.6)”. In addition, the “Potentiator Efficacy” value on ΔF508 CTFR [2] was “+ (+=<0.1)”.

Regarding `CS(=O)(=O)N1CC(COc2nc(N[C@H]3CC[C@@H](C)CC3)ncc2-c2ccc(N3CCOCC3)cc2)C1` [Example 80, N-((1s,4s)-4-methylcyclohexyl)-4-((1-(methylsulfonyl)azetidin-3-yl)methoxy)-5-(4-morpholinophenyl)pyrimidin-2-amine], the “Corrector Efficacy” value on ΔF508 CTFR [1] is “++ (++=0.3-0.6)”. The “Potentiator Efficacy” value on ΔF508 CTFR [2] was “+++ (+++=>0.25)”.

On to `C[C@H]1CC[C@@H](Nc2ncc(-c3ccc(O[C@H]4CCOC4)cc3)c(O[C@@H]3CCOC3)n2)CC1.Cl` [Example 6, 4-((R)-tetrahydrofuran-3-yloxy)-5-(4-((S)-tetrahydrofuran-3-yloxy)phenyl)-N-(cis-4-methylcyclohexyl)pyrimidin-2-amine hydrochloride salt], for which the “Corrector Efficacy” value on ΔF508 CTFR [1] is listed as “++ (++=0.3-0.6)”. For the same molecule, the “Potentiator Efficacy” value at ΔF508 CTFR [2] is given as “++ (++=0.1-0.25)”.

Take `COC(=O)N1CCC(Oc2ccc(-c3cnc(NC4CCC(C)CC4)nc3O[C@@H]3CCOC3)cc2)C1` (stereo partly drawn) [Example 103, methyl 3-(4-(2-((1s,4S)-4-methylcyclohexylamino)-4-((R)-tetrahydrofuran-3-yloxy)pyrimidin-5-yl)phenoxy)pyrrolidine-1-carboxylate]: the “Corrector Efficacy” value at ΔF508 CTFR [1] is listed as “++ (++=0.3-0.6)”. The “Potentiator Efficacy” value at ΔF508 CTFR [2] is “+ (+=<0.1)”.
